For data set [1], the system named is Streptococcus pneumoniae 1 Neufeld. It counts as in vivo, Streptococcus pneumoniae (male mice, Std-ddY). Particulars: 336 h, read-out: median effective dose (ED50).
In another data set the test system is M. pneumoniae Mac. Kind of data set: Antimycoplasma activity (twofold agar dilution method). It counts as cell-based, Mycoplasma pneumoniae. Particulars: Mycoplasmoides pneumoniae, 168 h, read-out: minimum inhibitory concentration (MIC). The method, then: (§1) The figures in the table show minimum inhibitory concentrations (MIC), (μg/ml), calculated for free base.
(§2) Minimum inhibitory concentrations (MIC) were determined by the twofold agar dilution method. The media used were Chanock broth and agar PPLD broth and agar (Difco) supplemented with 20% horse serum and 10% fresh yeast extract). A 2-3 day broth culture of organisms was diluted with Chanock broth to a cell density of about 10^6 cells/ml. One loopful (about […]) of the organism dilution was spotted onto 10-ml drug containing Chanock agar in petri dishes using a multiple inoculator (Cathra International). The petri dishes were incubated at 37° C. for 7 and 2 days for Mycoplasma pneumoniae and other Mycoplasma spp. respectively. Incubation was performed anaerobically using the Gaspak anaerobic system (BBL) for M. buccale, M. fermentans, M. hominis, M. orale and M. salivarium, and aerobically for other Mycoplasma spp. The MIC was defined as the lowest compound concentration at which no growth of organism was detected.
Background: Agar dilution tests growth on a series of plates holding different concentrations.

Data set [2] relates to C. Trachomatics G/ur 1483. Kind of data set: Antichlamydia activity (inclusion bodies in McCoy cells). Format: cell-based. The following applies: 36° C., 40-48 h, calculated for free base, read-out: minimum inhibitory concentration (MIC). How it is done:
(§3) Minimum inhibitory concentrations (MIC) were determined as follows. McCoy cells were freshly cultured in Eagle's minimum essential medium (EMEM) (Flow) supplemented with 4% fetal bovine serum and 0.03% L-glutamine. The cells were trypsinized and suspended in the same culture medium at a cell concentration of 1-2×10^5 cells/ml. One ml of the cell suspension was pipetted into flat-bottomed plastic tubes (14 mm in diameter) containing a cover slip (12 mm in diameter). The tubes were incubated in 5% CO2 -air at 36° C. for 20 hours. One-half ml of a chlamydial suspension (ca. 1-4×10^3 inclusion body forming units) was added into each tube, which was then centrifuged at 1500×g for 60 minutes. The tubes were incubated for 1 hour at 36° C. The medium was changed with 1 ml of EMEM supplemented with 8% fetal bovine serum, 0.03% L-blutamine, 1μg/ml cycloheximide and 0.5% glucose, and containing drugs at various concentrations. After further incubation at 36° C. for 40-48 hours, the cells on the cover glasses were stained with the Giemsa's solution. […] The MIC was defined as the lowest drug concentration where there were no inclusion bodies in all the cells on the cover slip.

For data set [3], the system named is C. Trachomatics G/ur 1467. The description is as above. Format: cell-based. Particulars: 36° C., 40-48 h, calculated for free base, read-out: minimum inhibitory concentration (MIC). How it is done:
as §3

Another data set concerns C. Trachomatics G/ur 931. The description is as above. Format: cell-based. Particulars: 36° C., 40-48 h, calculated for free base, read-out: minimum inhibitory concentration (MIC). How it is done: as §3
Data set [4] relates to C. Trachomatics G/ur 1317. Described as above. The following applies: 36° C., 40-48 h, calculated for free base, read-out: minimum inhibitory concentration (MIC). Format: cell-based. How it is done:
as §3

The next data set relates to M. salivarium PG-20. Kind of data set: Antimycoplasma activity (twofold agar dilution method). It counts as cell-based. Particulars: 48 h, read-out: minimum inhibitory concentration (MIC). How it is done:
as §1, §2

A further data set deals with M. orale CH-19299. The data set is described as above. It counts as cell-based. The following applies: 48 h, read-out: minimum inhibitory concentration (MIC). The method, then:
as §1, §2

A further data set has as its system M. hyorhinis BST-7. Described as above. The following applies: Mesomycoplasma hyorhinis, BST7, 48 h, read-out: minimum inhibitory concentration (MIC). It counts as cell-based. How it is done: as §1, §2
For the next data set, the system named is M. hominis PG-21. The data set is described as above. Format: cell-based. The following applies: Metamycoplasma hominis, PG21, 48 h, read-out: minimum inhibitory concentration (MIC). The method, then: as §1, §2
For a further data set, the system named is M. fermentans PG-18. The description is as above. Format: cell-based. Particulars: Mycoplasmopsis fermentans, PG18, 48 h, read-out: minimum inhibitory concentration (MIC). How it is done: as §1, §2
The next data set relates to M. arginini G-230. The description is as above. Particulars: 48 h, read-out: minimum inhibitory concentration (MIC). It counts as cell-based. The method, then: as §1, §2
For a further data set, the system named is A. laidlawii PG-8. The description is as above. Format: cell-based. The following applies: Acholeplasma laidlawii, PG8, 48 h, read-out: minimum inhibitory concentration (MIC). How it is done:
as §1, §2

The test system of another data set is M. buccale CH-20249. The description is as above. Format: cell-based. Particulars: 48 h, read-out: minimum inhibitory concentration (MIC). The method, then:
as §1, §2

Data set [5] relates to Staphylococcus aureus 50774. It counts as in vivo, Staphylococcus aureus (male mice, Std-ddY). Particulars: Staphylococcus aureus, 50774, po, 336 h, read-out: median effective dose (ED50). The source says: Staphylococcus aureus 50774
Intravenous infection with 5×10^8 cells per mouse suspended in saline.
For 7 days for other organisms.

The subject of a further data set is S. pyogenes Cook. Kind of data set: In vitro antibacterial activity (twofold agar-dilution method). Format: cell-based. Particulars: Streptococcus pyogenes, 20 h, 37° C., calculated for free base, read-out: minimum inhibitory concentration (MIC). The method, then: (§4) The figures in the table show minimum inhibitory concentrations (MIC) (μg/ml), calculated for free base. The minimum inhibitory concentration was determined by the twofold agar-dilution method, which was recommended by Japan Society of Chemotherapy (Chemotherapy, 29(1), 76(1981)), using Muller-Hinton agar. One loopful of an overnight culture of test organisms in Mueller-Hinton broth was inoculated onto 10-ml drug-containing agar layers in petri dishes. Bacterial inocula contained approximately 10^6 colonyl-formingunits. Bacterial growth was observed after 20-hour incubation at 37° C. The MIC was defined as the lowest drug concentration which prevented visible bacterial growth.

The next data set concerns S. epidermidis No. 8. The description is as above. The following applies: Staphylococcus epidermidis, NO.8, 20 h, read-out: minimum inhibitory concentration (MIC). It counts as cell-based. How it is done: as §4
The subject of a further data set is P. Aeruginosa 12. Described as above. It counts as cell-based. Particulars: Pseudomonas aeruginosa, 20 h, read-out: minimum inhibitory concentration (MIC). The method, then: as §4
Another data set relates to Flavobacterium sp P-7201. The data set is described as above. Particulars: Flavobacterium, P7201, 20 h, read-out: minimum inhibitory concentration (MIC). It counts as cell-based. How it is done: as §4
The test system of the next data set is S. aureus No. 80. Described as above. Format: cell-based. Particulars: Staphylococcus aureus, NO.80, 20 h, read-out: minimum inhibitory concentration (MIC). How it is done: as §4
The subject of another data set is S. aureus Terajima. Described as above. Particulars: Staphylococcus aureus, 20 h, read-out: minimum inhibitory concentration (MIC). It counts as cell-based. How it is done:
as §4

Another data set deals with S. marcescens IFO 3736. Described as above. The following applies: Serratia marcescens, IFO3736, 20 h, read-out: minimum inhibitory concentration (MIC). It counts as cell-based. The method, then:
as §4

The test system of the next data set is E. coli NIHJ JC-2. The data set is described as above. It counts as cell-based. Particulars: Escherichia coli, NIHJJC2, 20 h, read-out: minimum inhibitory concentration (MIC). The method, then: as §4
In another data set the test system is E. coli P-5101. The description is as above. Particulars: Escherichia coli, P5101, 20 h, read-out: minimum inhibitory concentration (MIC). Format: cell-based. The method, then: as §4
A further data set relates to S. aureus 209 JC-1. The description is as above. It counts as cell-based. Particulars: Staphylococcus aureus, 209JC1, 20 h, read-out: minimum inhibitory concentration (MIC). How it is done: as §4
Data set [6] relates to Streptococcus pyogenes A65. Particulars: A65, in Mus musculus, po, 168 h, read-out: median effective dose (ED50).
Data set [7] in a line: Urinary excretion in mice (thin-layer cup-plated method, Escherichia coli Kp indicator). It counts as in vivo. Particulars: mouse, urine, oral, 5 mg/kg, read-out: Urinary recovery for 24 hours. How it is done: A suspension containing each of compounds was orally administered to mice at a dose of 5 mg/kg. Urine was collected over a period of 24 hours after adminstration. The levels of the compounds in urine were determined by the thin-layer cup-plated method using Escherichia coli Kp as an indicator organism.

≈ marks a conversion by molar mass, not a printed value. Where two headings read alike, the source gives them in different places. A value given as a limit tells only on which side of the number the result lay.

For orientation: ED50 means the midpoint of the dose-response relation. Take `O=C(O)c1cn(C2CC2)c2cc(N3CCNCC3)c(F)cc2c1=O` [Compound A, reference compound]: the 50% effective dose (ED50) in [1] (po) was found to be 31.3 mg/kg; in data set [5] it was 8.24 mg/kg. The MIC in the data set with M. pneumoniae Mac was 0.78 µg/mL (≈ 2.35 µM); in data set [2], 1 µg/mL (≈ 3.02 µM); in [3], 1 µg/mL (≈ 3.02 µM); with C. Trachomatics G/ur 931, 1 µg/mL (≈ 3.02 µM); in [4], 2 µg/mL (≈ 6.04 µM); in the data set on M. salivarium PG-20 it was 3.13 µg/mL (≈ 9.45 µM). For the same compound, the MIC with M. orale CH-19299 was 1.56 µg/mL (≈ 4.71 µM); in the data set on M. hyorhinis BST-7 it was 0.39 µg/mL (≈ 1.18 µM); in the data set on M. hominis PG-21 it was 1.56 µg/mL (≈ 4.71 µM); with M. fermentans PG-18 it was 0.2 µg/mL (≈ 0.604 µM); in the data set on M. arginini G-230 it was 0.39 µg/mL (≈ 1.18 µM); in the data set on A. laidlawii PG-8 it was 0.39 µg/mL (≈ 1.18 µM). Moreover, the MIC in the data set on M. buccale CH-20249 was 0.39 µg/mL (≈ 1.18 µM); in the data set on S. pyogenes Cook it was 0.2 µg/mL (≈ 0.604 µM); with S. epidermidis No. 8 it was 0.1 µg/mL (≈ 0.302 µM); in the data set with P. Aeruginosa 12 it was 0.1 µg/mL (≈ 0.302 µM); in the data set with Flavobacterium sp P-7201, 0.39 µg/mL (≈ 1.18 µM); with S. aureus No. 80, 0.39 µg/mL (≈ 1.18 µM). Moreover, the MIC with S. aureus Terajima is 0.1 µg/mL (≈ 0.302 µM); in the data set on S. marcescens IFO 3736, 0.05 µg/mL (≈ 0.151 µM); in the data set on E. coli NIHJ JC-2 it was 0.0063 µg/mL (≈ 0.019 µM); in the data set on E. coli P-5101, 0.0063 µg/mL (≈ 0.019 µM); in the data set on S. aureus 209 JC-1, 0.1 µg/mL (≈ 0.302 µM).

Take `Nc1c(F)c(N2CCNCC2)c(F)c2c1c(=O)c(C(=O)O)cn2C1CC1` [Compound B, 5-amino-1-cyclopropyl-6,8-difluoro-7-(1-piperazinyl)-1,4-dihydro-4-oxoquinoline-3-carboxylic acid, reference compound]: the ED50 in data set [1] (mice, oral, four times (immediately, 6, 24 and 30 h after intraperitoneal infection), 14 days, calculated for free base) was 20.8 mg/kg; in [6] it was above 50 mg/kg. Further, the MIC with S. pyogenes Cook was 0.2 µg/mL (≈ 0.549 µM); with S. epidermidis No. 8, 0.05 µg/mL (≈ 0.137 µM); in the data set with P. Aeruginosa 12, 0.1 µg/mL (≈ 0.274 µM); in the data set on Flavobacterium sp P-7201, 0.1 µg/mL (≈ 0.274 µM); with S. aureus No. 80, 0.05 µg/mL (≈ 0.137 µM); with S. aureus Terajima (S. aureus Terajima, agar dilution, 37° C., calculated for free base) it was 0.025 µg/mL (≈ 0.0686 µM). Also, the MIC in the data set on S. marcescens IFO 3736 is 0.1 µg/mL (≈ 0.274 µM); in the data set with E. coli NIHJ JC-2, 0.0063 µg/mL (≈ 0.0173 µM); in the data set on E. coli P-5101, 0.0063 µg/mL (≈ 0.0173 µM); with S. aureus 209 JC-1 it was 0.05 µg/mL (≈ 0.137 µM).

With `CC1CN(c2c(F)c(N)c3c(=O)c(C(=O)O)cn(C4CC4)c3c2F)CC(C)N1` (centres unmarked) [Compound C, 5-amino-1-cyclopropyl-6,8-difluoro-7-(3,5-dimethyl-1-piperazinyl)-1,4-dihydro-4-oxoquinoline-3-carboxylic acid, reference compound], the dose excreted at 24 h in data set [7] was 4.51%.

Source of the values: patent publication US5013841A, “Oxo quinoline derivatives” (Dainippon Pharmaceutical Co., Ltd., priority 1987, dated 1991).
